Values of other authors in patent US9579356B2, “Dietary supplements for reducing cholesterol levels” (RELIV INTERNATIONAL INC., priority 2006, dated 2017).

Legend:
[1] = system: human neutrophils
[2] = system: rats which were fed a high cholesterol diet
[3] = system: rats; settings: dietary supplementation
[4] = system: individuals having initial total cholesterol levels exceeding 260 mg/dL; settings: 15 grams daily, three weeks
[5] = system: individuals having total cholesterol levels ranging from 210 to 326 mg/dL; settings: 3.5 g daily, after two weeks
[6] = system: patients with LDL-cholesterol levels exceeding 160 mg/dl; settings: after eight weeks; policosanol 10 mg/day, lovastatin 20 mg/day, simvastatin 10 mg/day

Q: With `Oc1ccc(C=Cc2cc(O)cc(O)c2)cc1` [Resveratrol] as the molecule, how does the leukotriene production [1] read?
A: The leukotriene production was “induce”.

Q: What about the “cholesterol and triglyceride liver deposition” value [2] of the same molecule?
A: Its value is “inhibited”.

Q: And the “low-density lipoprotein (LDL) cholesterol levels” value [2]?
A: The value was “lowered”.

Q: What about the “ratio of total cholesterol to high-density lipoprotein (HDL) cholesterol” value [2] of the same molecule?
A: The value was “reduced”.

Q: And the serum triglyceride levels [2]?
A: The serum triglyceride levels was “lowered”.

Q: For `O=C([O-])[C@@H](O)[C@@H](O)[C@H](O)[C@@H](O)C(=O)[O-].[Ca+2]` [calcium D-glucarate], which “lowering VLDL cholesterol” value [3] is on record?
A: The value was “did not demonstrate similar effects”.

Q: What about the lowering total triglycerides [3] of the same molecule?
A: The lowering total triglycerides was “did not demonstrate similar effects”.

Q: What does the source list for beta-glucan?
A: reduced LDL cholesterol [4]: about 23%; reduced total cholesterol [4]: about 19%; reduction in total cholesterol [5]: 5.4%

Q: For `O=C(O)[C@@H](O)[C@@H](O)[C@H](O)[C@@H](O)C(=O)[O-].[K+]` [potassium hydrogen D-glucarate], which “lowering VLDL cholesterol” value [3] is on record?
A: Its value is “effective”.

Q: What about the lowering total triglycerides [3] of the same molecule?
A: Its lowering total triglycerides is “effective”.

Q: With `CC[C@H](C)C(=O)O[C@H]1C[C@@H](C)C=C2C=C[C@H](C)[C@H](CC[C@@H]3C[C@@H](O)CC(=O)O3)[C@H]21` [lovastatin] as the molecule, how does the “reduced LDL-cholesterol levels” value [6] read?
A: The value was “about 22%”.
